Measured values published in ChEMBL document CHEMBL5252668, “Targeting the "Undruggable" Driver Protein, KRASG12D, as Potential Therapy in Prostate Cancer” (ACS Med Chem Lett, 2023).

Tests used:
[1] = molecular target: T1, GTPase KRas (Homo sapiens, UniProt P01116, G12D)
[2] = molecular target: T1, GTPase KRas; remark: listed apart in the source

T1 sequence (P01116 whole entry G12D): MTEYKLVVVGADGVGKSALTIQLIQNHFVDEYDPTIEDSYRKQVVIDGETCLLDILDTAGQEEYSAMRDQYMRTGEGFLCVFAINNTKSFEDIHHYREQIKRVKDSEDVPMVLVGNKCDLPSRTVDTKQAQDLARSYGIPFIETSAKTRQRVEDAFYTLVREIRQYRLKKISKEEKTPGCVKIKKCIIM

IC50 [1] | IC50 [2] | SMILES
1 nM | 3 nM | Oc1cc(-c2ncc3c(N4CCC[C@]5(CCO5)C4)nc(OC[C@@]45CCCN4C[C@H](F)C5)nc3c2F)c2c(Cl)c(F)ccc2c1
3 nM | 11 nM | CCc1cccc2cc(O)cc(-c3ncc4c(N5CCCC6(CCO6)C5)nc(OC[C@@]56CCCN5C[C@H](F)C6)nc4c3F)c12 (stereo not given in full)
4 nM | 7 nM | CCc1c(F)ccc2cc(O)cc(-c3ncc4c(N5CCCC6(CCO6)C5)nc(OC[C@@]56CCCN5C[C@H](F)C6)nc4c3C)c12 (stereo not given in full)
1 nM | 43 nM | C#Cc1c(F)ccc2cc(O)cc(-c3ncc4c(N5CCCC6(CCO6)C5)nc(OC[C@@]56CCCN5C[C@H](F)C6)nc4c3F)c12 (stereo not given in full)
2 nM | 119 nM | Oc1cc(-c2ncc3c(N4CCCC5(CC(O)C5)C4)nc(OC[C@@]45CCCN4C[C@H](F)C5)nc3c2F)c2c(F)c(F)ccc2c1 (stereo not given in full)
2 nM | 9 nM | Oc1cc(-c2ncc3c(N4CCCC5(CCO5)C4)nc(OC[C@@]45CCCN4C[C@H](F)C5)nc3c2F)c2c(F)c(F)ccc2c1 (stereo not given in full)

The remaining lines, values behind:

SMILES | IC50 [1] | IC50 [2]
CCc1cccc2cc(O)cc(-c3ncc4c(N5CCCC6(CC(O)C6)C5)nc(OC[C@@]56CCCN5C[C@H](F)C6)nc4c3F)c12 (stereo not given in full) | 1 nM | 22 nM
CCc1c(F)ccc2cc(O)cc(-c3ncc4c(N5CC(O)CC6(CC6)C5)nc(OC[C@@]56CCCN5C[C@H](F)C6)nc4c3F)c12 (stereo not given in full) | 2 nM | 34 nM
CCc1c(F)ccc2cc(O)cc(-c3ncc4c(N5CCCC6(CC(=O)N6)C5)nc(OC[C@@]56CCCN5C[C@H](F)C6)nc4c3F)c12 (stereo not given in full) | 2 nM | 44 nM
Oc1cc(Cl)c(C2CC2)c(-c2ncc3c(N4CCCC5(CCO5)C4)nc(OC[C@@]45CCCN4C[C@H](F)C5)nc3c2F)c1 (stereo not given in full) | 2 nM | 66 nM
